Test systems include OVCAR-8 ovarian; U251 CNS; UACC-62 melanoma; NCI-H23 lung; SK-MEL-28 melanoma; CCRF-CEM leukemia; A549 NSCLC; SF-295 CNS; SW-620 colon; A498 renal.
Test in all cases: growth of human tumour cells (NCI), 48 h

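1) Cells in 96-well plates. 2) Compound, 48 h, 5 concentrations. 3) Linear interpolation between surrounding doses. 4) Unreached endpoint = highest concentration. GI50 marks 50% less growth. TGI is the concentration that stops growth completely.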

In the case of `CCc1cc(=O)n(/C(C)=C/c2ccccc2)n1C`, the TGI with OVCAR-8 ovarian, in the assay with U251 CNS, in the assay on UACC-62 melanoma, with NCI-H23 lung, with SK-MEL-28 melanoma and in the assay on CCRF-CEM leukemia was > 100 µM each time. Moreover, the TGI in the assay on A549 NSCLC, with SF-295 CNS and in the assay with SW-620 colon was > 100 µM in each case.
`CCOC(=O)c1csc(NC(=O)CCCC#N)n1`: the TGI in the assay with OVCAR-8 ovarian, in the assay with U251 CNS, in the assay on UACC-62 melanoma, in the assay with NCI-H23 lung, with SK-MEL-28 melanoma and with CCRF-CEM leukemia was > 100 µM in each case. Further, the TGI in the assay with A549 NSCLC, in the assay with SF-295 CNS, with A498 renal and in the assay with SW-620 colon was > 100 µM in each case.
With `c1ccc([P+](Cc2csnn2)(c2ccccc2)c2ccccc2)cc1`, the TGI in the assay with OVCAR-8 ovarian, in the assay on U251 CNS, with UACC-62 melanoma, with NCI-H23 lung, in the assay on SK-MEL-28 melanoma and in the assay on CCRF-CEM leukemia was > 100 µM throughout. Moreover, the TGI with A549 NSCLC, in the assay on SF-295 CNS, in the assay with A498 renal and in the assay with SW-620 colon was > 100 µM throughout.
Turning to `CCOC(=O)C(C)NC(=O)N(C)C12CC3CC(CC(C3)C1)C2` (stereo unspecified), the TGI with OVCAR-8 ovarian is > 500 µM; in the assay on U251 CNS, > 500 µM; with UACC-62 melanoma, > 474 µM; in the assay with NCI-H23 lung, 441 µM; in the assay with SK-MEL-28 melanoma, > 500 µM; with CCRF-CEM leukemia, 430 µM. Also, the TGI in the assay on A549 NSCLC is > 500 µM; in the assay on SF-295 CNS it was > 500 µM; with A498 renal, 442 µM; in the assay on SW-620 colon, 494 µM.
For `O=C1c2c(c3c4ccc(Br)cc4oc3c3[nH]c4ccccc4c23)C(=O)N1O`, the GI50 in the assay on OVCAR-8 ovarian was 1.45 µM; in the assay with UACC-62 melanoma, 1.52 µM; in the assay on NCI-H23 lung it was 1.75 µM; with CCRF-CEM leukemia it was 0.0418 µM; in the assay on A498 renal it was 0.585 µM; with SW-620 colon, 1.38 µM. The TGI in the assay on OVCAR-8 ovarian was > 100 µM; in the assay with UACC-62 melanoma, 3.94 µM; with NCI-H23 lung it was 6.39 µM; in the assay with CCRF-CEM leukemia it was > 100 µM; in the assay on A498 renal, 4.41 µM; with SW-620 colon it was > 100 µM.
`CCC1(CC)C(=O)NC(=S)N=C1N`: the TGI with OVCAR-8 ovarian, in the assay on U251 CNS, in the assay with UACC-62 melanoma, in the assay on NCI-H23 lung, in the assay on SK-MEL-28 melanoma and with CCRF-CEM leukemia was > 100 µM each time. Further, the TGI in the assay on A549 NSCLC, in the assay on SF-295 CNS, in the assay with A498 renal and in the assay on SW-620 colon was > 100 µM throughout.
On to `COc1ccc(CN2C(=O)C(=O)N(C)C2=O)c2ccccc12`, for which the TGI in the assay with OVCAR-8 ovarian, with U251 CNS, in the assay on UACC-62 melanoma, in the assay on NCI-H23 lung, in the assay on SK-MEL-28 melanoma and in the assay on CCRF-CEM leukemia was > 10 µM each time. Moreover, the TGI in the assay with A549 NSCLC, in the assay on SF-295 CNS, in the assay on A498 renal and with SW-620 colon was > 10 µM in each case.
With `CCOC(=O)C1=C(C)NC(=O)N([N+](=O)[O-])C1c1ccccc1C(F)(F)F` (stereo unspecified), the TGI in the assay with OVCAR-8 ovarian, in the assay on U251 CNS, in the assay with UACC-62 melanoma, with NCI-H23 lung, in the assay on SK-MEL-28 melanoma and in the assay on CCRF-CEM leukemia was > 100 µM each time. Moreover, the TGI in the assay with A549 NSCLC, with SF-295 CNS, in the assay on A498 renal and in the assay with SW-620 colon was > 100 µM each time.
`O=C(NN1C(=O)CSC1c1ccc(Cl)c(Cl)c1)c1ccncc1` (stereo unspecified): the TGI in the assay with OVCAR-8 ovarian, with U251 CNS, in the assay on UACC-62 melanoma, with NCI-H23 lung, in the assay with SK-MEL-28 melanoma and in the assay on CCRF-CEM leukemia was > 100 µM throughout. Besides, the TGI in the assay with A549 NSCLC, in the assay with SF-295 CNS, with A498 renal and in the assay on SW-620 colon was > 100 µM in each case.
With `Cc1cc(C)nc(NS(=O)(=O)c2ccc(Nc3c4ccccc4nc4c(C(=O)NCCO)cccc34)cc2)n1`, the TGI in the assay on OVCAR-8 ovarian was > 100 µM; in the assay on U251 CNS it was > 100 µM; in the assay with UACC-62 melanoma, > 100 µM; with NCI-H23 lung it was > 100 µM; in the assay with SK-MEL-28 melanoma, 41.3 µM; in the assay on CCRF-CEM leukemia, 50.9 µM. Besides, the TGI in the assay with A549 NSCLC is > 100 µM; in the assay with SF-295 CNS, 53.5 µM; in the assay on A498 renal, > 100 µM; with SW-620 colon, > 100 µM.
As to `O=c1c2cc3c(=O)n(CCc4ccccc4CO)c(=O)c3cc2c(=O)n1CCc1ccccc1CO`, the TGI in the assay with OVCAR-8 ovarian, in the assay on U251 CNS, with UACC-62 melanoma, with NCI-H23 lung, in the assay on SK-MEL-28 melanoma and in the assay with CCRF-CEM leukemia was > 100 µM each time. Besides, the TGI with A549 NSCLC, in the assay on SF-295 CNS, with A498 renal and in the assay with SW-620 colon was > 100 µM each time.
For the compound `COc1cc(CCCOC2OC(COC3OCC(O)C(O)C3O)C(O)C(O)C2O)cc2cc(-c3ccc4c(c3)OCO4)oc12` (stereo unspecified), the TGI with OVCAR-8 ovarian was 109 µM; with U251 CNS, > 175 µM; in the assay on UACC-62 melanoma, > 175 µM; in the assay on NCI-H23 lung, > 175 µM; with SK-MEL-28 melanoma, > 175 µM; in the assay with CCRF-CEM leukemia, > 69.7 µM. Further, the TGI in the assay with A549 NSCLC is > 175 µM; with SF-295 CNS it was > 175 µM; in the assay with A498 renal, > 27.7 µM; in the assay with SW-620 colon, > 175 µM.
Take `Nc1nc(Nc2ccc(OCc3cccc(F)c3)cc2)c2c(n1)[nH]c1ccc(O)cc12`: the GI50 was 3.49 µM in the assay on OVCAR-8 ovarian; 2.44 µM with U251 CNS; 1.95 µM in the assay on UACC-62 melanoma; 4.12 µM with NCI-H23 lung; 2.26 µM in the assay with SK-MEL-28 melanoma; 3.03 µM in the assay on CCRF-CEM leukemia. Also, the GI50 with A549 NSCLC is 4.13 µM; with SF-295 CNS it was 2.5 µM; in the assay with A498 renal it was 15.7 µM; with SW-620 colon, 2.54 µM. Besides, the TGI is 13.2 µM with OVCAR-8 ovarian; 6.09 µM in the assay on U251 CNS; 4.09 µM in the assay with UACC-62 melanoma; 22.2 µM in the assay with NCI-H23 lung; 5.59 µM in the assay on SK-MEL-28 melanoma; 9.62 µM with CCRF-CEM leukemia. Besides, the TGI in the assay on A549 NSCLC came out at 17.8 µM; with SF-295 CNS it was 7.63 µM; in the assay on A498 renal it was 33.1 µM; in the assay on SW-620 colon, 6.26 µM.
